According to patent US20090030049A1, “MEDICAMENT FOR GENITAL HERPES” (ASTELLAS PHARMA INC., priority 2005, published 2009):
Where “and” joins values, the source holds several entries; their conditions need not be identical. Equal values may be shown once.

System: HSV-2 strain G
Experiment: Therapeutic activity upon guinea pig HSV-2 genital herpes model (vaginal lesion score)
Format: in vivo
Details: oral, twice a day, dose inhibiting 50% of average vaginal lesion score of placebo group at 9 days after infection, Hartley female guinea pig; for ED50: Human alphaherpesvirus 2, in Cavia porcellus, started after development of vaginal lesions (day 4 to 8 after infection), read-out: Lesion inhibitory activity (ED50; mg/kg) (4 to 8 days of administration after infection); for Comparative test (administration before the development of lesions) (ED50; mg/kg) (0 to 4 days of administration after infection): started 3 hours after HSV-2 infection until 4 days after infection
Procedure: In vivo activity of the pharmaceutical composition of the present invention was tested using an HSV-2 infected guinea pig vagina genital herpes model in reference to the method of L. Stanberry et al. (Journal of Infectious Disease, 1982, 146, 397-404). An absorbent cotton swab was impregnated with an HSV-2 virus suspension (HSV-2 strain G 1.25×10^5 PFU/ml) and inserted into the vagina of a Hartley female guinea pig (4 weeks of age) under diethyl ether anesthesia, thereby infecting it with HSV-2. Vagina lesions and general conditions caused by the HSV-2 infection were scored based on the following 6 steps and evaluated every day from the infected day (0 day) to 9 days after the infection.
Score 1: formation of approximately 1 or 2 small blisters which can be observed with the naked eye
Score 2: formation of blisters in 10 to 50% per vaginal visible area
Score 3: formation of blisters in 50 to 100% per vaginal visible area
Score 4: formation of ulcers in 10 to 50% per vaginal visible area
Score 5: formation of ulcers in 50 to 100% per vaginal visible area
Score 6: paralysis of hind legs or death
Only guinea pigs in which the vaginal lesion score was judged to be 1 or 2 and development of lesions therefore was found were selected after the development of vaginal lesions by HSV-2 infection, namely 4 days after the infection, their grouping was carried out in such a manner that average values of the scores became even, and then administration of each compound to be tested was started. Each compound to be tested was made into a methyl cellulose suspension and orally administered twice a day for 5 days of from the 4th day to 8th day after the infection. Additionally, in order to compare degrees of the therapeutic effect due to difference in the administration starting period, a comparative test was simultaneously carried out in which the administration was started before the development of vaginal lesions (3 hours after the HSV-2 infection) and the administration was carried out in the same manner until 4 days after the infection. Each test was carried out using 10 animals per group of the guinea pigs and using VCV as the comparative compound.
Regarding the average vaginal lesion score of 9 days after the HSV-2 infection, the dose of each compound to be tested which inhibits 50% of the score of the placebo administration group (ED50 value; mg/kg, twice a day) was calculated, with the results shown in the following table.

Compound | ED50 [mg/kg] | Comparative test (administration before the development of lesions) (ED50; mg/kg) (0 to 4 days of administration after infection)
Cc1ccc(N(CC(=O)Nc2ccc(-c3cocn3)cc2)C(=O)C2CCS(=O)(=O)CC2)cc1 [Preparation 2, N-(4-methylphenyl)-N-(2-{[4-(1,3-oxazol-4-yl)phenyl]amino}-2-oxoethyl)tetrahydro-2H-thiopyran-4-carboxamide 1,1-dioxide] | 3.1 | 1.3 mg/kg
Cc1cccc(C)c1N(CC(=O)Nc1ccc(-c2ncon2)cc1)C(=O)C1CCS(=O)(=O)CC1 [Preparation 27, N-(2,6-dimethylphenyl)-N-(2-{[4-(1,2,4-oxadiazol-3-yl)phenyl]amino}-2-oxoethyl)tetrahydro-2H-thiopyran-4-carboxamide 1,1-dioxide] | 2.5 | 1.2 mg/kg
CC(C)[C@H](N)C(=O)OCCOCn1cnc2c(=O)[nH]c(N)nc21 [VCV, valacyclovir, reference compound] | ≥ 300 | 117 mg/kg and 50 mg/kg
